The subject of the experiment is anesthetized rats. Kind of experiment: Anesthetized rat spirometry screening assay (ventilatory activity, minute volume). It is filed as in vivo. The conditions noted are these: increase in minute volume (VE); for change in vivo at 0.3 mg/kg: 0.3 mg/kg IV bolus, read-out: VE % Inc @ 0.3 mg/kg IV; for change in vivo at 3 mg/kg: 3.0 mg/kg IV bolus, read-out: VE % Inc @ 3.0 mg/kg IV. In outline:
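Urethane-anesthetized (1.5 g/kg i.v.) rats with tracheal cannula to pneumotachometer; minute volume derived from respiratory rate × tidal volume. Compounds given as i.v. bolus at 0.1 and/or 0.3 and/or 3 mg/kg, monitored at least 6 min; data as 30 s averages.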

SMILES strings stand for the structures. Counter-ions that a name gives are not always drawn.

Consider `CC[C@H](C)Nc1nc(NC)nc2c(NCC(C)(C)O)nc(NC)nc12` [Compound 42a, 1-[8-((S)-sec-Butylamino)-2,6-bis-methylamino-pyrimido[5,4-d]-pyrimidin-4-ylamino]-2-methyl-propan-2-ol Hydrochloride], for which the change in vivo at 0.3 mg/kg worked out at 76% and the change in vivo at 3 mg/kg was 149%.

As to `CCCNc1nc(NC)c2nc(N[C@H]3c4ccccc4C[C@@H]3O)nc(NC)c2n1` [Compound 125, (1S,2S)-1-(4,8-Bis-methylamino-6-propylamino-pyrimido[5,4-d]-pyrimidin-2-ylamino)-indan-2-ol], the change in vivo at 0.3 mg/kg is 38% and the change in vivo at 3 mg/kg was 84%.

`CCCNc1nc(NC)nc2c(NCCO)nc(NC)nc12` [Compound 4a, 2-(2,6-Bis-methylamino-8-propylamino-pyrimido[5,4-d]pyrimidin-4-ylamino)-ethanol hydrochloride]: the change in vivo at 0.3 mg/kg came out at 90%.

Turning to `CCCNc1nc(NCC)nc2c(NCCO)nc(NCC)nc12` [Compound 27a, 2-(2,6-Bis-ethylamino-8-propylamino-pyrimido[5,4-d]pyrimidin-4-ylamino)-ethanol Hydrochloride], the change in vivo at 0.3 mg/kg is 110%.

For `CCCNc1nc(NC)nc2c(N[C@@H](C)CO)nc(NC)nc12` [Compound 18a, (S)-2-(2,6-Bis-methylamino-8-propylamino-pyrimido[5,4-d]-pyrimidin-4-ylamino)-propan-1-ol Hydrochloride], the change in vivo at 0.3 mg/kg is 50%.

Regarding `CCCNc1nc(NC)c2nc(N[C@@H]3CCCC[C@@H]3O)nc(NC)c2n1` [Compound 135, (1S,2R)-2-(4,8-Bis-methylamino-6-propylamino-pyrimido[5,4-d]pyrimidin-2-ylamino)-cyclohexanol], the change in vivo at 0.3 mg/kg is 22% and the change in vivo at 3 mg/kg stood at 142%.

For the molecule `CCCNc1nc(NCC)nc2c(NCC(C)(C)O)nc(NCC)nc12` [Compound 32a, 1-(2,6-Bis-ethylamino-8-propylamino-pyrimido[5,4-d]-pyrimidin-4-ylamino)-2-methyl-propan-2-ol hydrochloride], the change in vivo at 0.3 mg/kg came to 201%.

As to `CCCNc1nc(NC)nc2c(N(C)CC(C)O)nc(NC)nc12` (stereo not shown) [Compound 73a, 1-[(2,6-Bis-methylamino-8-propylamino-pyrimido[5,4-d]-pyrimidin-4-yl)-methyl-amino]-propan-2-ol Hydrochloride], the change in vivo at 0.3 mg/kg worked out at 16% and the change in vivo at 3 mg/kg turned out to be 79%.

In the case of `CCCNc1nc(NC)nc2c(NC[C@H](C)O)nc(NC)nc12` [Compound 12a, (S)-1-(2,6-Bis-methylamino-8-propylamino-pyrimido[5,4-d]pyrimidin-4-ylamino)-propan-2-ol hydrochloride], the change in vivo at 0.3 mg/kg was 114%.

As for `CCCNc1nc(NC)c2nc(N(C)CC(C)(C)O)nc(NC)c2n1` [Compound 96, 1-[(4,8-Bis-methylamino-6-propylamino-pyrimido[5,4-d]pyrimidin-2-yl)-methyl-amino]-2-methyl-propan-2-ol], the change in vivo at 0.3 mg/kg was found to be 70% and the change in vivo at 3 mg/kg amounted to 96%.

Turning to `CNc1nc(NCC(C)(C)O)c2nc(NC)nc(NCC3CC3)c2n1` [Compound 46a, 1-[8-(Cyclopropylmethyl-amino)-2,6-bis-methylamino-pyrimido[5,4-d]pyrimidin-4-ylamino]-2-methyl-propan-2-ol Hydrochloride], the change in vivo at 0.3 mg/kg stood at 79% and the change in vivo at 3 mg/kg worked out at 203%.

As for `CNc1nc(NCc2ccccc2)c2nc(NC)nc(NCCO)c2n1` [Compound 64a, 2-(8-Benzylamino-2,6-bis-methylamino-pyrimido[5,4-d]-pyrimidin-4-ylamino)-ethanol Hydrochloride], the change in vivo at 0.3 mg/kg amounted to 32% and the change in vivo at 3 mg/kg is 157%.

On to `CCCNc1nc(NCC)c2nc(NCC(C)(C)O)nc(NCC)c2n1` [Compound 163, 1-(4,8-Bis-ethylamino-6-propylamino-pyrimido[5,4-d]pyrimidin-2-ylamino)-2-methyl-propan-2-ol], for which the change in vivo at 0.3 mg/kg stood at 88% and the change in vivo at 3 mg/kg stood at 144%.

`CCCNc1nc(NC)nc2c(N[C@H]3CCCC[C@H]3O)nc(NC)nc12` [Compound 82, (1R,2S)-2-(2,6-Bis-methylamino-8-propylamino-pyrimido[5,4-d]pyrimidin-4-ylamino)-cyclohexanol]: the change in vivo at 0.3 mg/kg was 102% and the change in vivo at 3 mg/kg stood at 132%.

`CCCNc1nc(NC)nc2c(N[C@H]3c4ccccc4C[C@@H]3O)nc(NC)nc12` [Compound 78, (1S,2S)-1-(2,6-Bis-methylamino-8-propylamino-pyrimido[5,4-d]-pyrimidin-4-ylamino)-indan-2-ol]: the change in vivo at 0.3 mg/kg was found to be 173% and the change in vivo at 3 mg/kg was 180%.

On to `CCCNc1nc(NC)nc2c(NCC(O)(CC)CC)nc(NC)nc12` [Compound 74a, 3-[(2,6-Bis-methylamino-8-propylamino-pyrimido[5,4-d]pyrimidin-4-ylamino)-methyl]-pentan-3-ol Hydrochloride], for which the change in vivo at 0.3 mg/kg was found to be 153% and the change in vivo at 3 mg/kg is 208%.

On to `CCCNc1nc(NC)nc2c(N[C@H]3c4ccccc4C[C@H]3O)nc(NC)nc12` [Compound 79, (1S,2R)-1-(2,6-Bis-methylamino-8-propylamino-pyrimido[5,4-d]pyrimidin-4-ylamino)-indan-2-ol], for which the change in vivo at 0.3 mg/kg came to 56% and the change in vivo at 3 mg/kg came out at 162%.

Take `CNc1nc(NCCOC)c2nc(NC)nc(NCCO)c2n1` [Compound 56a, 2-[8-(2-Methoxy-ethylamino)-2,6-bis-methylamino-pyrimido[5,4-d]pyrimidin-4-ylamino]-ethanol Hydrochloride]: the change in vivo at 0.3 mg/kg amounted to 2%.

Turning to `CCCNc1nc(NC)c2nc(NC[C@@H](C)O)nc(NC)c2n1` [Compound 115, (R)-1-(4,8-Bis-methylamino-6-propylamino-pyrimido[5,4-d]pyrimidin-2-ylamino)-propan-2-ol], the change in vivo at 0.3 mg/kg amounted to 60% and the change in vivo at 3 mg/kg worked out at 151%.

For `CCCNc1nc(NC)nc2c(N[C@@H]3CCC[C@H]3O)nc(NC)nc12` [Compound 87, (1R,2R)-2-(2,6-Bis-methylamino-8-propylamino-pyrimido[5,4-d]pyrimidin-4-ylamino)-cyclopentanol], the change in vivo at 0.3 mg/kg came to 39% and the change in vivo at 3 mg/kg turned out to be 129%.

Turning to `CCCNc1nc(NC)nc2c(N[C@H](C)CO)nc(NC)nc12` [Compound 20a, (R)-2-(2,6-Bis-methylamino-8-propylamino-pyrimido[5,4-d]-pyrimidin-4-ylamino)-propan-1-ol Hydrochloride], the change in vivo at 0.3 mg/kg was 107%.

As for `CNc1nc(NCC(F)(F)F)c2nc(NC)nc(NCCO)c2n1` [Compound 62a, 2-[2,6-Bis-methylamino-8-(2,2,2-trifluoro-ethylamino)-pyrimido[5,4-d]pyrimidin-4-ylamino]-ethanol Hydrochloride], the change in vivo at 0.3 mg/kg is 40%.

Take `CCNc1nc(NC)nc2c(NCCCO)nc(NC)nc12` [Compound 67a, 3-(8-Ethylamino-2,6-bis-methylamino-pyrimido[5,4-d]-pyrimidin-4-ylamino)-propan-1-ol Hydrochloride]: the change in vivo at 0.3 mg/kg stood at 7% and the change in vivo at 3 mg/kg was 136%.

In the case of `CCNc1nc(NC)c2nc(NCC(O)CC)nc(NC)c2n1` (stereo not shown) [Compound 147, 1-(6-Ethylamino-4,8-bis-methylamino-pyrimido[5,4-d]pyrimidin-2-ylamino)-butan-2-ol], the change in vivo at 0.3 mg/kg was 31% and the change in vivo at 3 mg/kg was 147%.

For `CCCNc1nc(NC)c2nc(N(C)CC(C)O)nc(NC)c2n1` (stereo not shown) [Compound 97, 1-[(4,8-Bis-methylamino-6-propylamino-pyrimido[5,4-d]pyrimidin-2-yl)-methyl-amino]-propan-2-ol], the change in vivo at 0.3 mg/kg is 49% and the change in vivo at 3 mg/kg was 140%.

Regarding `C=CCNc1nc(NC)c2nc(NC[C@H](C)O)nc(NC)c2n1` [Compound 143, (S)-1-(6-Allylamino-4,8-bis-methylamino-pyrimido[5,4-d]pyrimidin-2-ylamino)-propan-2-ol], the change in vivo at 0.3 mg/kg was 81% and the change in vivo at 3 mg/kg stood at 150%.

Take `CCCNc1nc(NCC(F)(F)F)nc2c(NCCO)nc(NCC(F)(F)F)nc12` [Compound 28a, 2-[8-propylamino-2,6-bis-(2,2,2-trifluoroethylamino)-pyrimido[5,4-d]pyrimidin-4-ylamino]ethanol hydrochloride]: the change in vivo at 0.3 mg/kg is 16%.

Regarding `CNc1nc(NC)c2nc(NCC(C)(C)O)nc(NC)c2n1` [Compound 149, 2-Methyl-1-(4,6,8-tris-methylamino-pyrimido[5,4-d]pyrimidin-2-ylamino)-propan-2-ol], the change in vivo at 0.3 mg/kg is 16% and the change in vivo at 3 mg/kg came out at 49%.

`CCCNc1nc(NC)nc2c(NCC(C)O)nc(NC)nc12` (stereo not shown) [Compound 10a, 1-(2,6-Bis-methylamino-8-propylamino-pyrimido[5,4-d]-pyrimidin-4-ylamino)-propan-2-ol hydrochloride]: the change in vivo at 0.3 mg/kg amounted to 93%.

Turning to `C=CCNc1nc(NC)c2nc(N(CCC)C[C@H](C)O)nc(NC)c2n1` [Compound 155, (S)-1-[(6-Allylamino-4,8-bis-methylamino-pyrimido[5,4-d]-pyrimidin-2-yl)-propyl-amino]-propan-2-ol], the change in vivo at 0.3 mg/kg was found to be 14% and the change in vivo at 3 mg/kg turned out to be 79%.

Consider `C=C(C)CNc1nc(NC)c2nc(NC[C@@H](C)O)nc(NC)c2n1` [Compound 158, (R)-1-[6-(2-Methyl-allylamino)-4,8-bis-methylamino-pyrimido[5,4-d]-pyrimidin-2-ylamino]-propan-2-ol], for which the change in vivo at 0.3 mg/kg was 68% and the change in vivo at 3 mg/kg was determined as 120%.

(Values after patent publication US10294228B2, “Breathing control modulating compounds, and methods of making and using same” (NEURAD LTD., priority 2015, dated 2019).)
